≈ marks a conversion by molar mass, not a printed value.
Experiments:
Type in all cases: cell-based
M. haemolytica N811 = assay: MIC, brain heart infusion agar, multiple dilution method (Test Example 3); details: Mannheimia haemolytica, brain heart infusion agar medium
Description: (§1) According to the standard method of Japanese Society of Chemotherapy, the amycolamicin was measured for antimicrobial spectrum against bacteria causing pneumonia in domestic livestock in the brain heart infusion agar medium by the multiple dilution method.

P. multocida M-17 = assay: as above; details: Pasteurella multocida, M17, brain heart infusion agar medium
Description: as §1

[1] = tested on: Mannheimia haemolytica N791; assay: as above; details: brain heart infusion agar medium
Description: as §1

[2] = tested on: Pasteurella multocida No. 6; assay: as above; details: brain heart infusion agar medium
Description: as §1

P. multocida TS-8 = assay: as above; details: Pasteurella multocida, TS8, brain heart infusion agar medium
Description: as §1

P. multocida Kobe = assay: as above; details: Pasteurella multocida, brain heart infusion agar medium
Description: as §1

S. aureus MS16526(MRSA) = assay: MIC, Muller Hinton agar, multiple dilution method (Test Example 1); details: Staphylococcus aureus, Muller Hinton agar medium
Description: (§2) According to the standard method of Japanese Society of Chemotherapy, the amycolamicin was measured for antimicrobial spectrum against various microorganisms including drug-resistant bacteria (e.g., methicilline resistant bacteria and vancomycin resistant bacteria) in the Muller Hinton agar medium by the multiple dilution method.

[3] = tested on: Klebsiella pneumoniae PC1602; assay: as above; details: Muller Hinton agar medium
Description: as §2

Escherichia coli NIHJ = assay: as above; details: Muller Hinton agar medium
Description: as §2

[4] = tested on: Staphylococcus aureus FDA209P; assay: as above; details: Muller Hinton agar medium
Description: as §2

S. aureus MRSA No.17 = assay: as above; details: Staphylococcus aureus, Muller Hinton agar medium
Description: as §2

E. coli K-12 = assay: as above; details: Escherichia coli, K12, Muller Hinton agar medium
Description: as §2

S. aureus MS9610 = assay: as above; details: Staphylococcus aureus, Muller Hinton agar medium
Description: as §2

[5] = tested on: Ent faecium NCTCI12202(VRE); assay: as above; details: Enterococcus, Muller Hinton agar medium
Description: as §2

S. aureus MRSA No.5 = assay: as above; details: Staphylococcus aureus, Muller Hinton agar medium
Description: as §2

[6] = tested on: Ent. faecium NCTCI12204(VRE); assay: as above; details: Enterococcus faecium, Muller Hinton agar medium
Description: as §2

[7] = tested on: Enterococcus faecalis JCM 5803; assay: as above; details: JCM5803, Muller Hinton agar medium
Description: as §2

[8] = tested on: Ent. faecalis NCTC12201(VRE); assay: as above; details: Enterococcus faecalis, Muller Hinton agar medium
Description: as §2

S. aureus TY-04282(MRSA) = assay: as above; details: Staphylococcus aureus, Muller Hinton agar medium
Description: as §2

Ent. faecium JCM 5804 = assay: as above; details: Enterococcus faecium, JCM5804, Muller Hinton agar medium
Description: as §2

S. aureus Smith = assay: as above; details: Staphylococcus aureus, Muller Hinton agar medium
Description: as §2

[9] = tested on: Ent. faecalis NCTC12203(VRE); assay: as above; details: Enterococcus faecalis, Muller Hinton agar medium
Description: as §2

H. infulenzae T196 = assay: MIC, Muller Hinton agar with sheep blood, 5% CO2 (Test Example 2); details: Haemophilus, Muller Hinton agar + sheep blood 5% by volume
H. infulenzae IID988 = assay: as above; details: Haemophilus, Muller Hinton agar + sheep blood 5% by volume
[10] = tested on: Streptococcus pneumoniae S-223; assay: as above; details: S223, Muller Hinton agar + sheep blood 5% by volume
H. infulenzae IID987 = assay: as above; details: Haemophilus, Muller Hinton agar + sheep blood 5% by volume
[11] = tested on: Histophilus somni 23N2359; assay: MIC, Muller Hinton agar with Fields enrichment, 5% CO2 (Test Example 4); details: Muller Hinton agar + Fields enrichment 5% by volume
Description: (§3) According to the standard method of Japanese Society of Chemotherapy, the amycolamicin was measured for antimicrobial spectrum against bacteria causing pneumonia in domestic livestock other than those listed in Table 3 in the Muller Hinton agar medium supplemented with Fields enrichment (5% by volume) by the multiple dilution method in an atmosphere of 5% by volume CO2.

[12] = tested on: A. pleuropneumoniae O-223; assay: as above; details: Actinobacillus pleuropneumoniae, O223, Muller Hinton agar + Fields enrichment 5% by volume
Description: as §3

A. pleuropneumoniae M-1 = assay: as above; details: Actinobacillus pleuropneumoniae, M1, Muller Hinton agar + Fields enrichment 5% by volume
Description: as §3

[13] = tested on: Actinobacillus pleuropneumoniae NB001; assay: as above; details: Muller Hinton agar + Fields enrichment 5% by volume
Description: as §3

[14] = tested on: A. pleuropneumoniae SHP-17; assay: as above; details: Actinobacillus pleuropneumoniae, SHP17, Muller Hinton agar + Fields enrichment 5% by volume
Description: as §3

A. pleuropneumoniae 6H-8 = assay: as above; details: Actinobacillus pleuropneumoniae, 6H8, Muller Hinton agar + Fields enrichment 5% by volume
Description: as §3

A. pleuropneumoniae YN = assay: as above; details: Actinobacillus pleuropneumoniae, Muller Hinton agar + Fields enrichment 5% by volume
Description: as §3

A. pleuropneumoniae Hi-1 = assay: as above; details: Actinobacillus pleuropneumoniae, HI1, Muller Hinton agar + Fields enrichment 5% by volume
Description: as §3

[15] = tested on: A. pleuropneumoniae HPT-1; assay: as above; details: Actinobacillus pleuropneumoniae, HPT1, Muller Hinton agar + Fields enrichment 5% by volume
Description: as §3

A. pleuropneumoniae CH-1 = assay: as above; details: Actinobacillus pleuropneumoniae, CH1, Muller Hinton agar + Fields enrichment 5% by volume
Description: as §3

[16] = tested on: A. pleuropneumoniae Shop1421; assay: as above; details: Actinobacillus pleuropneumoniae, Muller Hinton agar + Fields enrichment 5% by volume
Description: as §3

[17] = tested on: A. pleuropneumoniae CH-2(H4024); assay: as above; details: Actinobacillus pleuropneumoniae, Muller Hinton agar + Fields enrichment 5% by volume
Description: as §3

A. pleuropneumoniae 7H-3 = assay: as above; details: Actinobacillus pleuropneumoniae, 7H3, Muller Hinton agar + Fields enrichment 5% by volume
Description: as §3

H. infulenzae IID985 = assay: MIC, Muller Hinton agar with sheep blood, 5% CO2 (Test Example 2); details: Haemophilus, Muller Hinton agar + sheep blood 5% by volume
H. infulenzae IID986 = assay: as above; details: Haemophilus, Muller Hinton agar + sheep blood 5% by volume
[18] = tested on: Haemophilus infulenzae IID938; assay: as above; details: Muller Hinton agar + sheep blood 5% by volume

Compound C=C1CCC(OC2CC(O)(C(C)NC(=O)c3[nH]c(C)c(Cl)c3Cl)C(O)C(C)O2)C2C=CC(C)C(C(=O)C3=C(O)C(C(C)C)N(C4OC(C)C(OC(N)=O)C(OC(C)=O)C4OC)C3=O)C12 (stereo not drawn) [amycolamicin] has an MIC (M. haemolytica N811) of 0.78 µg/mL (≈ 0.83 µM), an MIC (P. multocida M-17) of 0.78 µg/mL (≈ 0.83 µM) and an MIC [1] of 0.78 µg/mL (≈ 0.83 µM). It also gave an MIC [2] of 1.56 µg/mL (≈ 1.66 µM), an MIC (P. multocida TS-8) of 0.78 µg/mL (≈ 0.83 µM) and an MIC (P. multocida Kobe) of 0.78 µg/mL (≈ 0.83 µM). It also gave an MIC (S. aureus MS16526(MRSA)) of 0.39 µg/mL (≈ 0.415 µM), an MIC [3] of 6.25 µg/mL (≈ 6.65 µM) and an MIC (Escherichia coli NIHJ) of 12.5 µg/mL (≈ 13.3 µM). For the same compound, the MIC [4] was 0.39 µg/mL (≈ 0.415 µM), the MIC (S. aureus MRSA No.17) was 0.39 µg/mL (≈ 0.415 µM) and the MIC (E. coli K-12) was 12.5 µg/mL (≈ 13.3 µM). For the same compound, the MIC (S. aureus MS9610) was 0.39 µg/mL (≈ 0.415 µM), the MIC [5] was 0.78 µg/mL (≈ 0.83 µM) and the MIC (S. aureus MRSA No.5) was 0.39 µg/mL (≈ 0.415 µM). For the same compound, the MIC [6] was 0.78 µg/mL (≈ 0.83 µM), the MIC [7] was 0.2 µg/mL (≈ 0.213 µM) and the MIC [8] was 0.1 µg/mL (≈ 0.106 µM). The MIC (S. aureus TY-04282(MRSA)) was 0.39 µg/mL (≈ 0.415 µM), the MIC (Ent. faecium JCM 5804) was 0.78 µg/mL (≈ 0.83 µM) and the MIC (S. aureus Smith) was 0.39 µg/mL (≈ 0.415 µM). For the same compound, the MIC [9] was 0.2 µg/mL (≈ 0.213 µM), the MIC (H. infulenzae T196) was 0.2 µg/mL and the MIC (H. infulenzae IID988) was 0.78 µg/mL. For the same compound, the MIC [10] was 0.39 µg/mL, the MIC (H. infulenzae IID987) was 0.78 µg/mL and the MIC [11] was 0.2 µg/mL. For the same compound, the MIC [12] was 1.56 µg/mL, the MIC (A. pleuropneumoniae M-1) was 0.78 µg/mL and the MIC [13] was 1.56 µg/mL. It also gave an MIC [14] of 1.56 µg/mL, an MIC (A. pleuropneumoniae 6H-8) of 1.56 µg/mL and an MIC (A. pleuropneumoniae YN) of 0.78 µg/mL. For the same compound, the MIC (A. pleuropneumoniae Hi-1) was 3.13 µg/mL, the MIC [15] was 1.56 µg/mL and the MIC (A. pleuropneumoniae CH-1) was 1.56 µg/mL. The MIC [16] was 3.13 µg/mL, the MIC [17] was 1.56 µg/mL and the MIC (A. pleuropneumoniae 7H-3) was 1.56 µg/mL. The MIC (H. infulenzae IID985) was 0.78 µg/mL, the MIC (H. infulenzae IID986) was 0.78 µg/mL and the MIC [18] was 0.78 µg/mL.

Reference: US8742135B1, “Compound amycolamicin, method for producing the same, and use of the same” (Microbial Chemistry Research Foundation, priority 2009, dated 2014)
